Experimental data as given in patent US12458647B2, “Macrocyclic derivative and use thereof” (Guangzhou Joyo Pharmatech Co., Ltd., priority 2022, dated 2025).

Key:
[1] = Pharmacokinetics test in mice; type: in vivo, male CD-1 (ICR) mice; details: male CD-1 mice
Protocol: The pharmacokinetic behavior of the compounds of the present disclosure was evaluated in male CD-1 (ICR) mice.
The compounds to be tested were dissolved in the vehicle (5% DMSO/10% solutol/85% water). Four male CD-1 mice were divided into 2 groups of 2 mice each. Group 1 mice were administered a single intravenous bolus injection of the compound at a dose of 1 mg/kg. Group 2 mice were administered a single dose of the compound by gavage at a dose of 10 mg/kg. Whole blood samples were collected at 0.083 (intravenous bolus group only), 0.25, 0.5, 1, 2, 4, 8 and 24 hours after dosing. The LC-MS/MS method was used to determine the concentration of the test compound in whole blood samples.

LU99 cell line = test: In vitro cell proliferation experiment (5 days), LU99; type: cell-based; details: LU99, 5 days; read-out: Inhibitory Activity IC50
Protocol: (§1) RPMI 1640 medium, DMEM, Ham's F12 medium, F12K medium, IMDM and penicillin/streptomycin antibiotics were purchased from Gibco, fetal bovine serum was purchased from Hyclone, Envision multilabel plate reader (PerkinElmer). […]
(§2) The test compound was diluted by 5-fold to 8 concentrations with a pipette, i.e., from 2 mM to 25.6 nM, and replicate wells were set up for the experiment. […] Another cell plate was prepared, and the signal value was read as the maximum value (the maximum value in the following equation) on the day of dosing for data analysis.
(§3) 50 μL of cell viability chemiluminescent detection reagent was added to the cell plate and incubated at room temperature for 30 minutes to stabilize the luminescence signal. A multilabel plate reader was used for reading. […]

HCT116 cells = test: In vitro cell proliferation experiment (5 days), HCT116; type: cell-based; details: HCT116, 5 days; read-out: Inhibitory Activity IC50
Protocol: as §1, §2, §3

[2] = system: p-ERK level in AsPC-1 cells; test: Detection of p-ERK level in AsPC-1 cells (HTRF); type: cell-based; details: 3 hours incubation; read-out: AsPC-1 pERK IC50
Protocol: AsPC-1 cells were purchased from ATCC: RPMI-1640 medium was purchased from Gibco; fetal bovine serum was purchased from Hyclone; Advanced Phospho-ERK1/2(THR202/TYR204) KIT was purchased from Bioauxilium-Advanced Phospho; ERK1/2(THR202/TYR204) KIT components were: Advanced PhosphoERK1/2 Eu Cryptate antibody, Advanced PhosphoERK1/2 d2 antibody, Blocking reagent (stock solution 100×), Lysis buffer #1 (stock solution 4×). Detection buffer (ready-to-use), with a storage temperature of ≤−16° C. for all.
(1) The cells were seeded in a white-bottomed 384-well cell culture plate, 8 μL of cell suspension per well, each well containing 7,500 cells. The cell plate was placed in a carbon dioxide incubator and incubated overnight at 37° C.;
(2) The test compound was diluted with 100% DMSO to 3 mM as the first concentration, and then diluted with a pipette to 10 concentrations of 3,000, 1,000, 300, 100, 30, 10, 3, 1, 0.3 and 0.1 μM. 2 μL of the compound was taken and added to 198 μL of cell starvation medium, mixed well, 15 μl, of compound solution was taken and added to 35 μL of cell starvation medium and mixed well. […]
(5) After incubation, a multilabel plate reader was used to read the HTRF excitation: 320 nm, emission: 615 nm, and 665 nm. […]

A549 cells = test: In vitro cell proliferation experiment (5 days), A549; type: cell-based; details: A549, 5 days; read-out: Inhibitory Activity IC50
Protocol: as §1, §2, §3

[3] = intravenous bolus 1 mg/kg, whole blood

SMILES	bioavailability (F) ([1]; gavage 10 mg/kg vs i.v. 1 mg/kg) [%]	AUC0-last ([1]; gavage 10 mg/kg, whole blood)	time to maximum concentration (τmax) ([1]; gavage 10 mg/kg, whole blood) [h]	apparent volume of distribution at steady state (Vd) [1, 3] [L/kg]	area under the whole blood concentration-time curve (AUC0-last) [1, 3] [µM·h]	elimination half-life (T1/2) [1, 3] [h]	whole blood clearance (C1) [1, 3] [mL/min/kg]	IC50 (LU99 cell line) [nM]	IC50 (HCT116 cells) [nM]	IC50 [2] [nM]	IC50 (A549 cells) [nM]
CCn1c(-c2cc(N3CCN(C)CC3)cnc2C(C)OC)c2c3cc(ccc31)-c1csc(n1)CC(NC(=O)C1CC1C)C(=O)N1NC(C(=O)OCC(C)(C)C2)C2CC1C2 (single isomer, unassigned) [Compound 7A]	54.3	17,119 h·nmol/mL	3.0	2.18	3.160	4.29	6.29	–	–	–	–
CCn1c(-c2cc(N3CCN(C)CC3)cnc2C(C)OC)c2c3cc(ccc31)-c1csc(n1)CC(NC(=O)C1C(C)C1C)C(=O)N1NC(C(=O)OCC(C)(C)C2)C2CC1C2 (single isomer, unassigned) [Compound 6A]	–	–	–	–	–	–	–	8.7	5.5	0.3	4.1
